For 40 compounds, IC50 and IC90 results are on record in ChEMBL document CHEMBL4483862, “Open-source discovery of chemical leads for next-generation chemoprotective antimalarials” (2018).

The experiment deals with Plasmodium berghei. The experiment can be described thus: Luciferase/luciferin-expressing antifolate-resistant parasites were used to infect a culture of HepG2 cells that were pre-incubated with compounds. Infected hepatocytes emit light due to the luciferase reaction. Assay results are presented as the percent inhibition of light emission compared to control. […]. The conditions noted are these: sporozoite; for IC90: read-out: LUCIFERASE INFECTION ASSAY - IC90. Format: functional.

The mark [1] stands for this setting: read-out: LUCIFERASE INFECTION ASSAY - IC50.

Turning to `COc1cc(OC)c(NC(=O)c2cc3ccccc3cc2OCC(=O)NCc2ccco2)cc1Cl`, the IC90 is over 10 µM. Further, the IC50 (PBLUC_HILL_SLOPE 22.1, PBLUC_R_SQUARED 0.617, read-out: LUCIFERASE INFECTION ASSAY - IC50) amounted to 9.17 µM.

For `Cc1ccc(-c2nnc(SCCOc3ccccc3C)nc2-c2ccc(C)cc2)cc1`, the IC90 was over 10 µM. For the same compound, the IC50 (HEPG2TOX_HILL_SLOPE 0.184, HEPG2TOX_R_SQUARED 0.53, PBLUC_HILL_SLOPE 4.7, PBLUC_R_SQUARED 0.148, read-out: LUCIFERASE INFECTION ASSAY - IC50) is 8.99 µM.

`O=C(NC1CCN(Cc2ccccc2)C1)c1cc2cc(Br)ccc2[nH]1` (stereo not given): the IC90 is over 10 µM. Besides, the IC50 (FFLUC_HILL_SLOPE 15.5, FFLUC_R_SQUARED 0.545, HEPG2TOX_HILL_SLOPE 1.06, HEPG2TOX_R_SQUARED 0.919, PBLUC_HILL_SLOPE 3.35, PBLUC_R_SQUARED 0.069, read-out: LUCIFERASE INFECTION ASSAY - IC50) was 7.09 µM.

For the compound `Cc1cc(C)nc(-n2nc(Nc3ccccc3)cc2Nc2ccccc2)n1`, the IC90 was over 10 µM. Besides, the IC50 (FFLUC_HILL_SLOPE 18.6, FFLUC_R_SQUARED 0.489, PBLUC_HILL_SLOPE 15, PBLUC_R_SQUARED 0.577, read-out: LUCIFERASE INFECTION ASSAY - IC50) was determined as 9.07 µM.

For the compound `CC(=O)Nc1cccc(-c2cn3c(-c4ccc(C#N)cc4)cnc3cn2)c1`, the IC90 was over 9.34 µM. Besides, under “PBLUC_HILL_SLOPE 15, PBLUC_R_SQUARED 0.251, read-out: LUCIFERASE INFECTION ASSAY - IC50”, the IC50 amounted to 8.2 µM.

Regarding `Cc1ccnc(-n2c(C)c(C)c3c2ncn2nc(Cc4ccccc4)nc32)c1`, the IC90 is over 8.96 µM. For the same compound, under setting [1], the IC50 was over 8.96 µM.

Take `CN(C)c1cccc(Nc2nccc3[nH]c(-c4cccc(F)c4)cc23)c1`: the IC90 turned out to be 1.41 µM. The IC50 (HEPG2TOX_HILL_SLOPE 2.36, HEPG2TOX_R_SQUARED 0.936, PBLUC_HILL_SLOPE 7.91, PBLUC_R_SQUARED 0.783, read-out: LUCIFERASE INFECTION ASSAY - IC50) came out at 1.07 µM.

For `CCCCc1[nH]nc2ccnc(-c3ccc(CO)cc3)c12`, the IC90 is over 10 µM. For the same compound, the IC50 (HEPG2TOX_HILL_SLOPE 1.75, HEPG2TOX_R_SQUARED 0.977, read-out: LUCIFERASE INFECTION ASSAY - IC50) is over 10 µM.

Consider `Cc1ccc(CN(C)c2ccc([N+](=O)[O-])cc2Cl)o1`, for which the IC90 is over 10 µM. Under setting [1], the IC50 was over 10 µM.

For `Nc1ncc(-c2ccc(C(=O)NC3CC3)cc2)cc1-c1ccc(F)c(Cl)c1`, the IC90 was found to be 8.39 µM. The IC50 (PBLUC_HILL_SLOPE 15.4, PBLUC_R_SQUARED 0.346, read-out: LUCIFERASE INFECTION ASSAY - IC50) was determined as 7.27 µM.

In the case of `CCCc1c(Cc2c(F)cccc2Cl)c(=O)oc2cc(OC(=O)c3ccccc3Cl)ccc12`, the IC90 was over 6.8 µM. In addition, the IC50 under setting [1] was over 6.8 µM.

As to `Cc1nc(SCC(=O)N(C)Cc2cnn(Cc3ccccc3)c2)c2c(C)c(C)sc2n1`, the IC90 is over 10 µM. The IC50 under setting [1] is over 10 µM.

In the case of `Cn1ccc2cc(-c3cn4c(-c5cccc(O)c5)cnc4cn3)ccc21`, the IC90 turned out to be 3.11 µM. For the same compound, the IC50 (HEPG2TOX_HILL_SLOPE 1.21, HEPG2TOX_R_SQUARED 0.948, PBLUC_HILL_SLOPE 1.63, PBLUC_R_SQUARED 0.761, read-out: LUCIFERASE INFECTION ASSAY - IC50) was 0.805 µM.

`COc1cccc(Nc2ncc(C(=O)c3cccc(-c4cccnc4)c3)[nH]2)c1`: the IC90 was found to be 0.376 µM. Moreover, for the setting “HEPG2TOX_HILL_SLOPE 1.65, HEPG2TOX_R_SQUARED 0.891, PBLUC_HILL_SLOPE 14.3, PBLUC_R_SQUARED 0.795, read-out: LUCIFERASE INFECTION ASSAY - IC50”, the IC50 is 0.322 µM.

Take `COC(=O)c1occc1/C=C/C(=O)c1ccc2c(c1)CCC2`: the IC90 was over 10 µM. For the same compound, the IC50 under setting [1] is over 10 µM.

In the case of `CCN(CC(=O)Nc1nnc(-c2ccccc2)o1)Cc1ccc(Br)s1`, the IC90 came out at 3.99 µM. For the same compound, the IC50 (PBLUC_HILL_SLOPE 15.5, PBLUC_R_SQUARED 0.469, read-out: LUCIFERASE INFECTION ASSAY - IC50) worked out at 3.46 µM.

Take `CC(C)(C)c1ccc(-c2csc(NC(=O)c3cnccn3)n2)cc1`: the IC90 is over 10 µM. For the same compound, for the setting “HEPG2TOX_HILL_SLOPE 8.57, HEPG2TOX_R_SQUARED 0.595, PBLUC_HILL_SLOPE 12.7, PBLUC_R_SQUARED 0.201, read-out: LUCIFERASE INFECTION ASSAY - IC50”, the IC50 came to 9.05 µM.

On to `O=C(Nc1ncccc1O)c1ccc(-c2ccc3c(c2)OCCO3)s1`, for which the IC90 is over 10 µM. Besides, the IC50 under setting [1] is 7.42 µM.

In the case of `O=c1cc(CNC(CCCc2ccccc2)c2ccccc2)nc2ccc(Cl)cn12` (stereo not given), the IC90 was over 10 µM. In addition, the IC50 under setting [1] was over 10 µM.

`O=C(Nc1ncccc1O)c1ccc(CN2C(=O)c3ccccc3S2(=O)=O)cc1`: the IC90 is over 10 µM. Moreover, the IC50 (PBLUC_HILL_SLOPE 1.72, 0.775, PBLUC_R_SQUARED 0.614, 0.500, read-out: LUCIFERASE INFECTION ASSAY - IC50) was 4.22 µM.

`COc1ncccc1C(=O)NNC(=O)c1nc(-c2ccccc2)n(-c2ccccc2)n1`: the IC90 turned out to be 3.43 µM. For the setting “HEPG2TOX_HILL_SLOPE 3.74, HEPG2TOX_R_SQUARED 0.853, PBLUC_HILL_SLOPE 83.7, PBLUC_R_SQUARED 0.266, read-out: LUCIFERASE INFECTION ASSAY - IC50”, the IC50 is 3.34 µM.

For the compound `O=C1C(=C2NC(c3cccc(C(F)(F)F)c3)=CS2)Sc2ccccc21`, the IC90 is 3.25 µM. The IC50 (FFLUC_HILL_SLOPE 302, FFLUC_R_SQUARED 0.711, PBLUC_HILL_SLOPE 16.1, PBLUC_R_SQUARED 0.464, read-out: LUCIFERASE INFECTION ASSAY - IC50) is 2.83 µM.

As for `Fc1ccc(CNc2ncnc3ccc(Cl)cc23)cc1`, the IC90 was 9.51 µM. Also, under “HEPG2TOX_HILL_SLOPE 10.6, HEPG2TOX_R_SQUARED 0.947, PBLUC_HILL_SLOPE 2.4, PBLUC_R_SQUARED 0.787, read-out: LUCIFERASE INFECTION ASSAY - IC50”, the IC50 came out at 3.81 µM.

In the case of `CC(C)(C)NCC(O)CON=C1c2ccccc2-c2ccccc21` (stereo not given), the IC90 is over 10 µM. Moreover, the IC50 (PBLUC_HILL_SLOPE 12, PBLUC_R_SQUARED 0.408, read-out: LUCIFERASE INFECTION ASSAY - IC50) worked out at 9.17 µM.

`COc1cc(-c2nccc3n[nH]c(-c4cccc(OC(F)(F)F)c4)c23)cc(OC)c1OC`: the IC90 was over 10 µM. For the same compound, the half-maximal inhibitory concentration (IC50) under setting [1] is over 10 µM.

Turning to `CCOC(=O)c1nc(N(CCc2ccccc2)C(=O)c2cccnc2SC)sc1C`, the IC90 was over 10 µM. Moreover, the IC50 under setting [1] was over 10 µM.

Regarding `Cc1cccc(C(=O)NCC(=O)Nc2ncc(C)s2)c1`, the IC90 is over 10 µM. Moreover, for the setting “HEPG2TOX_HILL_SLOPE 123, HEPG2TOX_R_SQUARED 0.298, PBLUC_HILL_SLOPE 16, PBLUC_R_SQUARED 0.209, read-out: LUCIFERASE INFECTION ASSAY - IC50”, the 50% inhibitory concentration (IC50) worked out at 9.16 µM.

Consider `CCn1nc(C)cc1-c1nnc(SCc2ccccc2)n1-c1cccc(C(F)(F)F)c1`, for which the IC90 is over 7.44 µM. Besides, the IC50 under setting [1] was over 7.44 µM.

Take `CC(C)c1ccc(CN2CCC2(C)C(=O)Nc2cnc3ccccc3c2)cc1` (stereo not given): the IC90 amounted to 3.79 µM. The concentration for half-maximal inhibition (IC50) (PBLUC_HILL_SLOPE 15.4, PBLUC_R_SQUARED 0.671, read-out: LUCIFERASE INFECTION ASSAY - IC50) stood at 3.29 µM.

Take `C=CCn1c(-c2ccccc2)c(C)sc1=Nc1ccc(Cl)cc1`: the IC90 is over 10 µM. Moreover, under “PBLUC_HILL_SLOPE 11.2, PBLUC_R_SQUARED 0.0711, read-out: LUCIFERASE INFECTION ASSAY - IC50”, the IC50 was 9.93 µM.

For the compound `CCOC(=O)c1c(C)[nH]c(C(=O)CSc2nnc(C3CC3)n2N)c1C`, the IC90 turned out to be 0.847 µM. Further, the IC50 (PBLUC_HILL_SLOPE 1.71, PBLUC_R_SQUARED 0.964, read-out: LUCIFERASE INFECTION ASSAY - IC50) turned out to be 0.235 µM.

On to `Cc1onc(-c2c(Cl)cccc2Cl)c1-c1csc(-c2ccccc2Cl)n1`, for which the IC90 was determined as 6.63 µM. Besides, the IC50 (FFLUC_HILL_SLOPE 1.25, FFLUC_R_SQUARED 0.188, HEPG2TOX_HILL_SLOPE 2.28, HEPG2TOX_R_SQUARED 0.946, PBLUC_HILL_SLOPE 2.98, PBLUC_R_SQUARED 0.455, read-out: LUCIFERASE INFECTION ASSAY - IC50) stood at 3.17 µM.

Regarding `O=c1cc(CNc2ccccc2N2CCCCC2)nc2sccn12`, the IC90 was over 10 µM. In addition, the IC50 under setting [1] was found to be 9.19 µM.

Consider `CCOc1ccc(CN(CC)C(=O)c2ccc(=O)[nH]c2)cc1OC`, for which the IC90 is over 10 µM. Moreover, the IC50 under setting [1] is over 10 µM.

For the compound `Cc1cc(C)c2c(N)c(C(=O)NNC(=O)COc3ccc4c5c(c(=O)oc4c3)CCC5)sc2n1`, the IC90 is over 10 µM. The IC50 under setting [1] is over 10 µM.

With `CCN(CC)CCn1c(NC(=O)c2cccc3c[nH]nc23)nc2ccccc21`, the IC90 was over 10 µM. The IC50 (HEPG2TOX_HILL_SLOPE 0.322, HEPG2TOX_R_SQUARED 0.707, PBLUC_HILL_SLOPE 3.59, PBLUC_R_SQUARED 0.259, read-out: LUCIFERASE INFECTION ASSAY - IC50) stood at 6.09 µM.

`COc1ccc(-c2cnc3cnc(-c4ccc(OC(F)(F)F)cc4)cn23)cn1`: the IC90 is over 8.54 µM. Also, where the note is “PBLUC_HILL_SLOPE 11.4, PBLUC_R_SQUARED 0.148, read-out: LUCIFERASE INFECTION ASSAY - IC50”, the IC50 is over 8.54 µM.

With `CC(OC(=O)/C=C/c1ccc2ccccc2n1)C(=O)NC1CCCc2ccccc21` (stereo not given), the IC90 is over 10 µM. Moreover, the IC50 under setting [1] is over 10 µM.

For `Cn1c(=O)oc2ccc(S(=O)(=O)Nc3ccc4c(c3)CCCC4)cc21`, the concentration for an effect of 90% (IC90) is over 9.21 µM. Also, the IC50 under setting [1] is over 9.21 µM.

On to `O=C(Nc1ccc(Cl)c(C(F)(F)F)c1)c1[nH]nc2ccccc12`, for which the concentration for an effect of 90% (IC90) was over 10 µM. The IC50 under setting [1] was over 10 µM.

One may read the IC50 as the concentration needed to halve the response being measured. As usually defined, the IC90 is the concentration needed for an effect of 90%.
